Experimental data reported in patent US20220274947A1, “NOVEL HETEROARYL-TRIAZOLE COMPOUNDS AS PESTICIDES” (Bayer Aktiengesellschaft, priority 2019, published 2022).

Columns and labels:
Type in all cases: in vivo
Ctenocephalides felis [1] = assay: Ctenocephalides felis oral test (CTECFE Oral); details: 48 h, read-out: activity (mortality)
Method in brief: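 Percent mortality was recorded 2 days after roughly 20 adult Ctenocephalides felis fed on treated cattle blood. The blood was warmed to 37 °C beneath a parafilm membrane, with the fleas kept at room temperature. Compound was dissolved in DMSO and diluted into the blood to test concentration.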

Rhipicephalus microplus [2] = assay: Rhipicephalus (Boophilus) microplus in-vitro contact test, larval cattle tick, strain Parkhurst (BOOPMI Cont); details: application rate 5 μg/cm^2 (=500 g/ha), tick larvae, after 48 hours, read-out: activity (efficacy: 100% means all larvae are dead or moribund)
Method in brief: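 After 48 h at 27° C. and 85% humidity, percent dead or moribund larvae was scored from negative geotactic behaviour. Larvae (20-50, Parkhurst strain, synthetic pyrethroid-resistant) were exposed in tubes coated with compound from acetone, 900 ppm corresponding to 5 μg/cm^2.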

Nezara viridula = Nezara viridula spray test; details: in Hordeum vulgare, 96 h, barley plants, larvae, after 4 days; for mortality at 100 g/ha: application rate 100 g/ha
Method in brief: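 Mortality was read at day 4 (0% = no kill, 100% = total kill) after spraying larva-infested barley plants. Test solutions were made from an acetone/DMF concentrate diluted with water holding 1000 ppm alkylarylpolyglycol ether emulsifier.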

Myzus persicae [3] = assay: Myzus persicae spray test; details: in Brassica rapa, foliar, 120 h, read-out: activity (mortality), application rate 100 g/ha, spray, Chinese cabbage leaf disks, after 5 days
Method: Myzus persicae—Spray Test Solvent: 78.0 parts by weight acetone • 1.5 parts by weight dimethylformamide Emulsifier: alkylarylpolyglycol ether To produce a suitable preparation of active compound, 1 part by weight of active compound is mixed with the stated amount of solvents and is diluted with water, containing an emulsifier concentration of 1000 ppm, to the desired concentration. Further test concentrations are prepared by dilution with emulsifier containing water.
Chinese cabbage (Brassica pekinensis) leaf disks infected with all instars of the green peach aphid (Myzus persicae), are sprayed with a preparation of the active ingredient of the desired concentration.
After 5 days mortality in % is determined. 100% means all aphids have been killed and 0% means none of the aphids have been killed.

Ctenocephalides felis [4] = assay: Ctenocephalides felis in-vitro contact test, adult cat flea (CTECFE Cont); details: application rate 5 μg/cm^2 (=500 g/ha), adult cat fleas, after 48 hours, read-out: activity (efficacy: 100% means all fleas are dead or moribund)
Method in brief: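 Efficacy, as percent of fleas dead or moribund, was scored 48 h after adults (5-10 per tube) were placed in glass tubes whose walls carried dried compound at 5 μg/cm^2 (900 ppm solution). Moribund meant failing to climb away from a 45-50° C. hot plate within 5 min.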

Diabrotica balteata = Diabrotica balteata spray test; details: 168 h, application rate 100 g/ha (=32 μg/well), wheat seeds, larvae, after 7 days, read-out: activity (efficacy: 100% means all seedlings have grown up like in the untreated, uninfected control)
Method in brief: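 Efficacy (%) was scored 7 days after spraying, with 100% meaning growth like the untreated, uninfected control and 0% meaning no seedling grew. Spray solutions of compound in acetone/DMF with emulsifier-containing water went onto 1-day-germinated wheat seeds, and each unit was then infested with 10-20 banded cucumber beetle larvae.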

Rhipicephalus microplus [5] = assay: Rhipicephalus (Boophilus) microplus injection test (BOOPMI Inj); details: 168 h, injection into adult engorged female ticks, egg deposition after 7 days, read-out: activity (efficacy: 100% means all eggs are infertile); for pest or weed control at 0.004 mg: application rate 4 μg/tick
Method in brief: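 Compound in DMSO, 1 μL, injected abdominally into five adult engorged females, which were then held in a climate chamber. Read-out is egg fertility, scored from deposition at 7 days, with unclear eggs followed to hatching (~42 days); 0% means all eggs fertile, 100% all infertile.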

Myzus persicae [6] = assay: Myzus persicae oral test; details: 120 h, read-out: activity (mortality)
Method in brief: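 Percent mortality was recorded at day 5, where 0% means no aphids killed. Compound prepared from an acetone concentrate diluted in water and combined with IPL41 medium containing sugar was offered to mixed-stage green peach aphids, which sucked it through a parafilm seal.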

Rhipicephalus sanguineus = Rhipicephalus sanguineus in-vitro contact test, adult brown dog ticks (RHIPSA Cont); details: 48 h, after 48 hours, read-out: activity (efficacy: 100% means all ticks are dead or moribund); for pest or weed control at 1 µg/cm2, 100 g/ha: application rate 1 μg/cm^2 (=100 g/ha); for pest or weed control at 5 µg/cm2, 500 g/ha: application rate 5 μg/cm^2 (=500 g/ha)
Method in brief: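 Compound in acetone (9 mg/mL stock, diluted to test concentration) is coated onto inner walls of glass tubes by rotation for 2 h at 30 rpm. Efficacy is read after 48 h: ticks are tapped down and held on a 45-50° C plate for at most 5 min, and immotile or uncoordinated ones that fail to climb away count as dead or moribund.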

Spodoptera frugiperda = Spodoptera frugiperda spray test; details: in Zea mays, 168 h, read-out: activity (mortality)
Method in brief: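 Percent kill of fall armyworm caterpillars was assessed 7 days after infesting dried, treated maize leaf sections. Treatment was a spray of compound in acetone/dimethylformamide, diluted with water containing emulsifier at 1000 ppm.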

[7] = test system: Anopheles funestus strain FUMOZ-R; assay: Anopheles funestus test (ANPHFU surface treatment & contact assay); details: exposure 30 minutes, 24 hours after contact, read-out: efficacy (mortality)
Method: Anopheles funestus Test (ANPHFU Surface Treatment & Contact Assay) Solvent: Aceton+2000 ppm rapeseed oil methyl ester (RME)
In order to produce a sufficient, active ingredient containing solution it is necessary to solve the test compound in the solvent-mix (acetone at 2 mg/ml/RME 2000 ppm). This solution is pipetted onto a glazed tile and after evaporation of the acetone, adult mosquitoes of the species Anopheles funestus strain FUMOZ-R (Hunt et al., Med. Vet. Entomol. 2005 September; 19(3): 271-275) are placed onto the dried surface. The exposure time is 30 minutes. Mortality in percent (%) is determined 24 hours after contact of the insects to the treated surface. 100% mortality means that all tested insects are dead, whereas 0% means that no insect died.

[8] = test system: Aedes aegypti strain MONHEIM; assay: Aedes aegypti test (AEDSAE surface treatment & contact assay); details: exposure 30 minutes, 24 hours after contact, read-out: efficacy (mortality)
Method in brief: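 Compound dissolved in acetone (2 mg/ml) with 2000 ppm rapeseed oil methyl ester, pipetted onto glazed tile and dried. Adult mosquitoes exposed on the surface for 30 min; percent mortality scored 24 h after contact.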

[9] = surface concentration 4 mg/m^2, glazed tile
[10] = surface concentration 20 mg/m^2, glazed tile

Row | Compound | mortality at 100 ppm (Ctenocephalides felis [1]) | pest or weed control at 5 µg/cm2 (Rhipicephalus microplus [2]) | mortality at 100 g/ha (Nezara viridula) | mortality at 100 g/ha (Myzus persicae [3]) | pest or weed control at 5 µg/cm2 (Ctenocephalides felis [4]) | pest or weed control at 32 µg/disc, 100 g/ha (Diabrotica balteata) | pest or weed control at 0.004 mg (Rhipicephalus microplus [5]) | mortality at 4 ppm (Myzus persicae [6]) | pest or weed control at 1 µg/cm2, 100 g/ha (Rhipicephalus sanguineus) | pest or weed control at 5 µg/cm2, 500 g/ha (Rhipicephalus sanguineus) | mortality at 100 g/ha (Spodoptera frugiperda) | mortality at 0.8 ppm (Myzus persicae [6]) | mortality at 500 g/ha (Nezara viridula; application rate 500 g/ha) | mortality at 4 mg/m2 [7, 9] | mortality at 20 mg/m2 [7, 10] | pest or weed control at 0.02 mg (Rhipicephalus microplus [5]; application rate 20 μg/tick) | mortality at 4 mg/m2 [8, 9] | mortality at 20 mg/m2 [8, 10]
1 | Cc1nc([C@H](C)NC(=O)c2cc(C(F)(F)F)cc(C(F)(F)F)c2)n(-c2ccc(C(=O)N(C)CC(F)(F)F)cn2)n1 [II-93] | 90% | 100% | 100% | 90% | 90% | 100% | 100% | 100% | 100% | 100% | 100% | – | – | – | – | – | – | –
2 | Cc1nc([C@H](C)NC(=O)c2cc(C(F)(F)F)cc(C(F)(F)F)c2)n(-c2ccc(C(=O)N(C)CC3CC3)cn2)n1 [II-91] | 100% | 100% | 100% | 100% | 100% | 100% | 100% | 100% | 100% | 100% | 100% | 100% | – | – | – | – | – | –
3 | Cc1nc([C@H](C)NC(=O)c2cc(F)cc(C#N)c2)n(-c2ccc(C#N)cn2)n1 [II-105] | 100% | 100% | 100% | 90% | 100% | 100% | 100% | 100% | 100% | 100% | 100% | – | – | – | – | – | – | –
4 | COc1nc([C@H](C)NC(=O)c2cc(OC(F)F)cc(OC(F)F)c2)n(-c2ccc(C#N)cn2)n1 [I-64] | – | 100% | 90% | 90% | 90% | 100% | – | 100% | – | 80% | 100% | 100% | 100% | – | – | – | – | –
5 | Cc1nc([C@H](C)NC(=O)c2cccc(C(F)(F)F)n2)n(-c2ccc(C#N)cn2)n1 [II-48] | 90% | 100% | – | – | – | 100% | 100% | – | 100% | 100% | – | – | – | 80 to 100% | 80 to 100% | 100% | 80 to 100% | 80 to 100%
